# Experimental data reported in ChEMBL document CHEMBL5724914, “Linking interpersonal differences in gut microbiota composition and drug biotransformation activity” (2024).
# Experiment: (§1) The drug is tested on Z-030 corresponding to mouse gut metagenome with ENA study accession number: PRJEB37062 and ENA sample accession number: ERS12561829 for biotransformation under anaerobic condition. The drug concentrations were measured over 9 timepoints collected between 0 and 24 hours of incubation by liquid-chromatography-coupled mass spectrometry (LC–MS)
# Details: 2 µM
# Further: call rule not given here.
row,Bacterial Biotransformation,SMILES
1,Compound NOT metabolized,COC(=O)Nc1nc2ccc(C(=O)c3ccccc3)cc2[nH]1 [MEBENDAZOLE]
2,Compound NOT metabolized,CC(C)(C(=O)O)c1ccc(C(O)CCCN2CCC(C(O)(c3ccccc3)c3ccccc3)CC2)cc1 (stereo not given) [FEXOFENADINE]

# Experiment: as §1, with “Z-028” for “Z-030”, “ERS12561827” for “ERS12561829”
# Details: 2 µM
row,Bacterial Biotransformation,SMILES
1,Compound NOT metabolized,COC(=O)Nc1nc2ccc(C(=O)c3ccccc3)cc2[nH]1 [MEBENDAZOLE]
2,Compound NOT metabolized,CC(C)(C(=O)O)c1ccc(C(O)CCCN2CCC(C(O)(c3ccccc3)c3ccccc3)CC2)cc1 (stereo not given) [FEXOFENADINE]

# Experiment: as §1, with “Z-027” for “Z-030”, “to” for “to mouse gut”, “ERS12561826” for “ERS12561829”
# Details: 2 µM
row,Bacterial Biotransformation,SMILES
1,Compound NOT metabolized,COC(=O)Nc1nc2ccc(C(=O)c3ccccc3)cc2[nH]1 [MEBENDAZOLE]
2,Compound NOT metabolized,CC(C)(C(=O)O)c1ccc(C(O)CCCN2CCC(C(O)(c3ccccc3)c3ccccc3)CC2)cc1 (stereo not given) [FEXOFENADINE]

# Experiment: as §1, with “Z-026” for “Z-030”, “to” for “to mouse gut”, “ERS12561825” for “ERS12561829”
# Details: 2 µM
row,Bacterial Biotransformation,SMILES
1,Compound NOT metabolized,COC(=O)Nc1nc2ccc(C(=O)c3ccccc3)cc2[nH]1 [MEBENDAZOLE]
2,Compound NOT metabolized,CC(C)(C(=O)O)c1ccc(C(O)CCCN2CCC(C(O)(c3ccccc3)c3ccccc3)CC2)cc1 (stereo not given) [FEXOFENADINE]

# Experiment: as §1, with “Z-024” for “Z-030”, “pig” for “mouse”, “ERS12561823” for “ERS12561829”
# Details: 2 µM
row,Bacterial Biotransformation,SMILES
1,Compound metabolized,COC(=O)Nc1nc2ccc(C(=O)c3ccccc3)cc2[nH]1 [MEBENDAZOLE]
2,Compound metabolized,CC(C)(C(=O)O)c1ccc(C(O)CCCN2CCC(C(O)(c3ccccc3)c3ccccc3)CC2)cc1 (stereo not given) [FEXOFENADINE]

# Experiment: as §1, with “Z-020” for “Z-030”, “rabbit” for “mouse”, “ERS12561819” for “ERS12561829”
# Details: 2 µM
row,Bacterial Biotransformation,SMILES
1,Compound metabolized,COC(=O)Nc1nc2ccc(C(=O)c3ccccc3)cc2[nH]1 [MEBENDAZOLE]
2,Compound NOT metabolized,CC(C)(C(=O)O)c1ccc(C(O)CCCN2CCC(C(O)(c3ccccc3)c3ccccc3)CC2)cc1 (stereo not given) [FEXOFENADINE]

# Experiment: as §1, with “Z-010” for “Z-030”, “to” for “to mouse gut”, “ERS12561810” for “ERS12561829”
# Details: 2 µM
row,Bacterial Biotransformation,SMILES
1,Compound metabolized,COC(=O)Nc1nc2ccc(C(=O)c3ccccc3)cc2[nH]1 [MEBENDAZOLE]
2,Compound NOT metabolized,CC(C)(C(=O)O)c1ccc(C(O)CCCN2CCC(C(O)(c3ccccc3)c3ccccc3)CC2)cc1 (stereo not given) [FEXOFENADINE]

# Experiment: as §1, with “Z-004” for “Z-030”, “to” for “to mouse gut”, “ERS12561804” for “ERS12561829”
# Details: 2 µM
row,Bacterial Biotransformation,SMILES
1,Compound metabolized,COC(=O)Nc1nc2ccc(C(=O)c3ccccc3)cc2[nH]1 [MEBENDAZOLE]
2,Compound NOT metabolized,CC(C)(C(=O)O)c1ccc(C(O)CCCN2CCC(C(O)(c3ccccc3)c3ccccc3)CC2)cc1 (stereo not given) [FEXOFENADINE]

# Experiment: as §1, with “Z-002” for “Z-030”, “rabbit” for “mouse”, “ERS12561802” for “ERS12561829”
# Details: 2 µM
row,Bacterial Biotransformation,SMILES
1,Compound metabolized,COC(=O)Nc1nc2ccc(C(=O)c3ccccc3)cc2[nH]1 [MEBENDAZOLE]
2,Compound metabolized,CC(C)(C(=O)O)c1ccc(C(O)CCCN2CCC(C(O)(c3ccccc3)c3ccccc3)CC2)cc1 (stereo not given) [FEXOFENADINE]

# Experiment: as §1, with “Z-001” for “Z-030”, “ERS12561801” for “ERS12561829”
# Details: 2 µM
row,Bacterial Biotransformation,SMILES
1,Compound metabolized,COC(=O)Nc1nc2ccc(C(=O)c3ccccc3)cc2[nH]1 [MEBENDAZOLE]
2,Compound NOT metabolized,CC(C)(C(=O)O)c1ccc(C(O)CCCN2CCC(C(O)(c3ccccc3)c3ccccc3)CC2)cc1 (stereo not given) [FEXOFENADINE]

# Experiment: as §1, with “WLS-370” for “Z-030”, “human” for “mouse”, “ERS12561793” for “ERS12561829”
# Details: 2 µM
row,Bacterial Biotransformation,SMILES
1,Compound metabolized,COC(=O)Nc1nc2ccc(C(=O)c3ccccc3)cc2[nH]1 [MEBENDAZOLE]
2,Compound NOT metabolized,CC(C)(C(=O)O)c1ccc(C(O)CCCN2CCC(C(O)(c3ccccc3)c3ccccc3)CC2)cc1 (stereo not given) [FEXOFENADINE]

# Experiment: as §1, with “WLS-170” for “Z-030”, “human” for “mouse”, “ERS12561762” for “ERS12561829”
# Details: 2 µM
row,Bacterial Biotransformation,SMILES
1,Compound metabolized,COC(=O)Nc1nc2ccc(C(=O)c3ccccc3)cc2[nH]1 [MEBENDAZOLE]
2,Compound NOT metabolized,CC(C)(C(=O)O)c1ccc(C(O)CCCN2CCC(C(O)(c3ccccc3)c3ccccc3)CC2)cc1 (stereo not given) [FEXOFENADINE]

# Experiment: as §1, with “WLS-090” for “Z-030”, “human” for “mouse”, “ERS12561753” for “ERS12561829”
# Details: 2 µM
row,Bacterial Biotransformation,SMILES
1,Compound metabolized,COC(=O)Nc1nc2ccc(C(=O)c3ccccc3)cc2[nH]1 [MEBENDAZOLE]
2,Compound NOT metabolized,CC(C)(C(=O)O)c1ccc(C(O)CCCN2CCC(C(O)(c3ccccc3)c3ccccc3)CC2)cc1 (stereo not given) [FEXOFENADINE]

# Details: human gut metagenome, 24 h, 2 µM
row,Bacterial Biotransformation,SMILES
1,Compound NOT metabolized,COC(=O)Nc1nc2ccc(C(=O)c3ccccc3)cc2[nH]1 [MEBENDAZOLE]
2,Compound NOT metabolized,CC(C)(C(=O)O)c1ccc(C(O)CCCN2CCC(C(O)(c3ccccc3)c3ccccc3)CC2)cc1 (stereo not given) [FEXOFENADINE]

# Details: human gut metagenome, 24 h, 2 µM
# Remark: another data set of the same source
row,Bacterial Biotransformation,SMILES
1,Compound metabolized,COC(=O)Nc1nc2ccc(C(=O)c3ccccc3)cc2[nH]1 [MEBENDAZOLE]
2,Compound NOT metabolized,CC(C)(C(=O)O)c1ccc(C(O)CCCN2CCC(C(O)(c3ccccc3)c3ccccc3)CC2)cc1 (stereo not given) [FEXOFENADINE]

# Details: human gut metagenome, 24 h, 2 µM
# Remark: another data set of the same source
row,Bacterial Biotransformation,SMILES
1,Compound metabolized,COC(=O)Nc1nc2ccc(C(=O)c3ccccc3)cc2[nH]1 [MEBENDAZOLE]
2,Compound NOT metabolized,CC(C)(C(=O)O)c1ccc(C(O)CCCN2CCC(C(O)(c3ccccc3)c3ccccc3)CC2)cc1 (stereo not given) [FEXOFENADINE]

# Details: human gut metagenome, 24 h, 2 µM
# Remark: another data set of the same source
row,Bacterial Biotransformation,SMILES
1,Compound metabolized,COC(=O)Nc1nc2ccc(C(=O)c3ccccc3)cc2[nH]1 [MEBENDAZOLE]
2,Compound NOT metabolized,CC(C)(C(=O)O)c1ccc(C(O)CCCN2CCC(C(O)(c3ccccc3)c3ccccc3)CC2)cc1 (stereo not given) [FEXOFENADINE]

# Details: human gut metagenome, 24 h, 2 µM
# Remark: another data set of the same source
row,Bacterial Biotransformation,SMILES
1,Compound metabolized,COC(=O)Nc1nc2ccc(C(=O)c3ccccc3)cc2[nH]1 [MEBENDAZOLE]
2,Compound NOT metabolized,CC(C)(C(=O)O)c1ccc(C(O)CCCN2CCC(C(O)(c3ccccc3)c3ccccc3)CC2)cc1 (stereo not given) [FEXOFENADINE]

# Details: human gut metagenome, 24 h, 2 µM
# Remark: another data set of the same source
row,Bacterial Biotransformation,SMILES
1,Compound metabolized,COC(=O)Nc1nc2ccc(C(=O)c3ccccc3)cc2[nH]1 [MEBENDAZOLE]
2,Compound NOT metabolized,CC(C)(C(=O)O)c1ccc(C(O)CCCN2CCC(C(O)(c3ccccc3)c3ccccc3)CC2)cc1 (stereo not given) [FEXOFENADINE]

# Details: human gut metagenome, 24 h, 2 µM
# Remark: another data set of the same source
row,Bacterial Biotransformation,SMILES
1,Compound metabolized,COC(=O)Nc1nc2ccc(C(=O)c3ccccc3)cc2[nH]1 [MEBENDAZOLE]
2,Compound NOT metabolized,CC(C)(C(=O)O)c1ccc(C(O)CCCN2CCC(C(O)(c3ccccc3)c3ccccc3)CC2)cc1 (stereo not given) [FEXOFENADINE]
